From US11673916B2, “Neuroprotective peptides and methods of their use” (University of Pittsburgh—Of the Commonwealth System of …, priority 2020, dated 2023)

System: cortical neurons
Test: Cell toxicity assay (LDH release) after excitotoxic TBOA treatment
Assay type: cell-based, rat
Conditions: 3 μM peptide, TBOA 60 μM, LDH 24 h after initial TBOA treatment, mean±SEM (FIG. 4D)
Experimental: Cortical neurons were pre-treated with vehicle, TAT-DP-2 (3 μM), or TAT-Sc-2 (3 μM) for 2 hours in HEPES-buffered minimal essential media with 0.01% bovine serum albumin (MHB). Next, cells with the same peptide concentrations along with either vehicle or 60 μM DL-threo-β-benzyloxyaspartic acid (TBOA) for 6 hours. Each well was washed two times with either 0.5 mL of vehicle or 60 μM TBOA and neurons were incubated overnight. Twenty-four hours following initial TBOA treatment, media was collected for lactate dehydrogenase assays (Sigma Aldrich, St. Louis, Mo.). Relative toxicity was quantified by calculating the ratio of LDH concentration in TBOA-treated over non-TBOA-treated wells. […]
With evidence that TAT-DP-2-mediated declustering prevents enhancement of pro-apoptotic Kv2.1 potassium currents following injury, the neuroprotective actions of TAT-DP-2 in cortical neurons in vitro were next tested. […] Neurotoxicity was assessed by the release of lactate dehydrogenase (LDH) into the culture medium, as described previously (Aras, et al., Curr Protoc Neurosci. 44: 7.18.1-7.18.15, 2008). […] Based on these findings, the potential neuroprotective actions of TAT-DP-2 were evaluated in an in vivo model of ischemia-reperfusion injury, where a substantial contribution of Kv2.1-enabled neuronal cell death has been previously observed (Yeh et al., J Neurosci. 37: 5648-5658, 2017).

YGRKKRRQRRRSIDSFTS [TAT-DP-2, TAT-linked declustering peptide 2]
mean relative toxicity ([LDH]TBOA/[LDH]Veh): 1.01±0.15

YGRKKRRQRRRDFSSIST [TAT-Sc-2, TAT-linked scramble control peptide]
mean relative toxicity ([LDH]TBOA/[LDH]Veh): 1.57±0.15
